59 molecules from PubChem BioAssay AID504857 (Southern Research Specialized Biocontainment Screening …, 2011) can be followed below.

Test [1] in a line: M. tuberculosis growth inhibition, dose response, H37Rv, 7H9 media, purified and synthesized compounds, set 4 (AID 504857). The following applies: Mycobacterium tuberculosis H37Rv growth in 7H9 media; at 100 µM (top of the series).
The subject of test [2] is Mycobacterium tuberculosis H37Rv growth in 7H9 media. The test is described as above. Particulars: for IC50: measured here: M. tuberculosis growth IC50.

Structures are written as SMILES. Active and inactive are the calls of the source. The rule behind the calls is not given here. Bounds are passed on as bounds.

Turning to `CCSc1nc(C)c(C)c(=O)[nH]1`, in test [1], the growth inhibition is 1.25% (inactive).

As to `Cc1nc(SCc2ccccc2Cl)[nH]c(=O)c1C`, the growth inhibition in test [1] was -1.2% (inactive).

Consider `CCC(Sc1nc2ccccc2c(=O)[nH]1)C(=O)Nc1cccc(OC)c1` (stereo not drawn), for which, in test [1], the growth inhibition was 18.9% (inactive).

As to `O=c1[nH]c(SCc2ccccc2Cl)nc2c1CCCC2`, the growth inhibition in test [1] is 9.36% (inactive).

As for `Cc1cc(=O)[nH]c(=S)[nH]1`, in test [1], the growth inhibition is -3.77% (inactive).

Consider `Cc1nc(SCC(=O)N(C)c2ccccc2)[nH]c(=O)c1C`, for which the growth inhibition in test [1] is -2.18% (inactive).

As to `Cc1ccc(NC(=O)COC(=O)CCc2c[nH]c3ccccc23)cc1[N+](=O)[O-]`, in test [2], the IC90 was 4680 nM and the IC50 came to 2550 nM.

In the case of `O=C(CSc1ncccn1)NC1CCCCC1`, the growth inhibition in test [1] is -3.06% (inactive).

For `Cc1c[nH]c(=S)[nH]c1=O`, the growth inhibition in test [1] was 2.29% (inactive).

For the molecule `COC(=O)C(C)Oc1ccc(Cc2ncc(C(F)(F)F)cc2Cl)cc1` (stereo not drawn), in test [2], the IC90 is 7110 nM and the IC50 was found to be 4400 nM.

For `Cc1nc(SCC(=O)NC2CCCC2)[nH]c(=O)c1C`, in test [2], the IC90 was 10900 nM and the IC50 was determined as 6250 nM.

`Cc1cc(Br)ccc1NC(=O)c1cnc(N2CCN(c3ccccn3)CC2)c2ccccc12`: in test [2], the IC90 is 35000 nM and the IC50 was determined as 1030 nM.

As to `CC(C)NC(=O)CSc1nc2ccccc2c(=O)[nH]1`, in test [2], the IC90 is 15200 nM and the IC50 was determined as 10300 nM.

Turning to `Cc1cnc(SCC(=O)NC2CCCCC2)[nH]c1=O`, in test [1], the growth inhibition was 4.36% (inactive).

As to `CC1CCN(C(=O)C2CCN(c3nnc(-n4cccc4)s3)CC2)CC1`, in test [2], the IC90 was 4870 nM and the IC50 was determined as 2790 nM.

Turning to `O=C(CSc1nc2ccccc2c(=O)[nH]1)NC1CCCCC1`, in test [2], the IC90 is 400 nM and the IC50 was determined as 250 nM.

`CC[N+](C)(CC)CCCCOc1ccc2c(c1)C(=O)c1cc(OCCCC[N+](C)(CC)CC)ccc1-2`: in test [2], the IC90 is 3300 nM and the IC50 was found to be 2470 nM.

As to `CCC(Sc1nc2c(c(=O)[nH]1)CCC2)C(=O)Nc1cccc(OC)c1` (stereo not drawn), in test [1], the growth inhibition was -2.13% (inactive).

With `Cc1[nH]c2ccccc2c1C(=O)COC(=O)c1ccc([N+](=O)[O-])s1`, in test [2], the 90% effect concentration (IC90) was 2930 nM and the IC50 was 1690 nM.

As for `O=C(CSc1nccc(=O)[nH]1)NC1CCCCC1`, in test [1], the growth inhibition was 6.38% (inactive).

As to `CC(C)CCNC(=O)CSc1nc2ccccc2c(=O)[nH]1`, in test [2], the IC90 is 20 nM and the concentration for half-maximal inhibition (IC50) is < 10 nM.

Regarding `Cc1cccc(-c2oc3ccc(-c4ccc5c(c4)OCO5)cc3c2C#Cc2cncn2C)c1`, in test [2], the concentration for an effect of 90% (IC90) was 3130 nM and the IC50 came out at 2600 nM.

In the case of `COc1cccc(NC(=O)CSc2nc3c(c(=O)[nH]2)CCC3)c1`, the growth inhibition in test [1] was -2.55% (inactive).

For `O=C(CSc1nc2ccccc2c(=O)[nH]1)NC1CCCC1`, in test [2], the IC90 is 710 nM and the IC50 worked out at 240 nM.

`Nc1c(C(=O)NC2CCCCC2)nsc1C(=O)OCC(=O)NC1CCCCC1`: the IC50 in test [2] came to 4420 nM. This lies in the single-digit micromolar range.

On to `CCOC(=O)CSc1nc(C)c(C)c(=O)[nH]1`, for which the growth inhibition in test [1] was 7.45% (inactive).

On to `COc1cccc(NC(=O)CSc2nc3ccccc3c(=O)[nH]2)c1`, for which the growth inhibition in test [1] was 7.54% (inactive).

Regarding `Cc1nc(SCC(=O)NCCC(C)C)[nH]c(=O)c1C`, in test [2], the IC90 was 9970 nM and the IC50 turned out to be 5780 nM.

As to `Cc1cc(C)n2nc(N)c(N=Nc3ccccc3)c2n1`, in test [2], the IC90 is 6310 nM and the half-maximal inhibitory concentration (IC50) was determined as 4720 nM.

`COc1ccc(NC(=O)CSc2nc3ccccc3c(=O)[nH]2)cc1`: the growth inhibition in test [1] was 10.6% (inactive).

For the molecule `O=C(CSc1ccccn1)NC1CCCCC1`, the growth inhibition in test [1] was 5.02% (inactive).

As to `Nc1cc(=O)[nH]c(SCC(=O)NC2CCCCC2)n1`, the growth inhibition in test [1] was -0.79% (inactive).

Take `COC(=O)c1ccc(CNc2c(N3CCCC3)c(=O)c2=O)cc1`: the growth inhibition in test [1] was 1.55% (inactive).

As for `Cn1c(SCC(=O)NC2CCCCC2)nc2ccccc2c1=O`, in test [1], the growth inhibition was 5.15% (inactive).

Turning to `O=c1[nH]c(=S)[nH]c2ccccc12`, the growth inhibition in test [1] was -2.47% (inactive).

`CC1CCN(C(=O)CSc2nc3ccccc3c(=O)[nH]2)CC1`: the growth inhibition in test [1] was 2.61% (inactive).

Take `CCSc1nc2ccccc2c(=O)[nH]1`: the growth inhibition in test [1] was 2.57% (inactive).

`Cc1[nH]c(=S)[nH]c(=O)c1C`: the growth inhibition in test [1] is 3.68% (inactive).

Regarding `CNC(=O)CSc1nc2ccccc2c(=O)[nH]1`, in test [2], the concentration for an effect of 90% (IC90) was 89800 nM and the IC50 stood at 54800 nM.

For `O=C(CSc1nc2ccccc2c(=O)[nH]1)NCc1ccc(Cl)cc1`, in test [2], the IC90 was 1270 nM and the IC50 is 760 nM.

Take `NC(=O)CSc1nc2ccccc2c(=O)[nH]1`: the growth inhibition in test [1] was 5.87% (inactive).

With `CN1CCC(NC(=O)CSc2nc3ccccc3c(=O)[nH]2)CC1`, in test [1], the growth inhibition is 4.15% (inactive).

Regarding `CC(Sc1nc2ccccc2c(=O)[nH]1)C(=O)NC1CCCCC1` (stereo not drawn), the growth inhibition in test [1] is 3.48% (inactive).

Consider `CCOC1OC(=O)C(Cl)=C1Nc1ccccc1C` (stereo not drawn), for which, in test [2], the concentration for an effect of 90% (IC90) was 9910 nM and the IC50 was 3780 nM.

Turning to `O=C(CSc1nc2c(c(=O)[nH]1)CCCC2)NC1CCCCC1`, in test [2], the IC90 was < 10 nM and the IC50 was < 10 nM.

With `Cc1nc(SCC(N)=O)[nH]c(=O)c1C`, the growth inhibition in test [1] is 3.13% (inactive).

Turning to `CC(C)CCNC(=O)CSc1nc2c(c(=O)[nH]1)CCC2`, in test [2], the IC90 is 1850 nM and the IC50 amounted to 1140 nM.

Take `CN(C)C(=O)CSc1nc2ccccc2c(=O)[nH]1`: the growth inhibition in test [1] was 10.3% (inactive).

On to `O=C(CSc1nc2ccccc2c(=O)[nH]1)N1CCOCC1`, for which the growth inhibition in test [1] is 6.76% (inactive).

Turning to `CN(C(=O)CSc1nc2ccccc2c(=O)[nH]1)C1CCCCC1`, the growth inhibition in test [1] is 4.85% (inactive).

On to `Cc1ccc(C(=O)N/N=C(/CC(=O)c2cccs2)C(F)(F)F)cc1`, for which, in test [2], the IC90 was 2800 nM and the concentration for half-maximal inhibition (IC50) turned out to be 1230 nM.

Turning to `O=C(CSc1nc2c(c(=O)[nH]1)CCC2)NC1CCCCC1`, in test [2], the IC90 is < 10 nM and the IC50 was < 10 nM.

In the case of `CCOc1ccc(-c2cc(C)[n+](CCc3ccc(OC)c(OC)c3)c(-c3ccc(OCC)cc3)c2)cc1`, in test [2], the IC90 is 1110 nM and the IC50 was 770 nM.

With `Cc1ccc(NC(=O)CSc2nc3ccccc3c(=O)[nH]2)cc1Cl`, the growth inhibition in test [1] is 0.04% (inactive).

With `Cc1cc(=O)[nH]c(SCC(=O)NC2CCCCC2)n1`, the growth inhibition in test [1] was -5.77% (inactive).

As to `Cc1cccc(/C=C/C(=O)c2ccc([N+](=O)[O-])o2)c1`, in test [2], the concentration for an effect of 90% (IC90) is 1120 nM and the IC50 is 670 nM.

With `CCC(Sc1nc2ccccc2c(=O)[nH]1)C(=O)NC1CCCCC1` (stereo not drawn), the growth inhibition in test [1] is 0.65% (inactive).

In the case of `COC(=O)C(Nc1nc(SCC(=O)NC2CCCCC2)nc2ccccc12)c1ccccc1` (stereo not drawn), the growth inhibition in test [1] was 0.63% (inactive).

For `c1ccc(/N=C2\N=C(Nc3ccccn3)c3ccccc32)nc1`, in test [2], the IC90 is 1360 nM and the IC50 was found to be 1030 nM.

One may read the IC90 as the point of the concentration-response curve where the effect stands at 90%. In general, IC50 refers to the concentration at which inhibition is half-maximal. A lower IC50 goes with greater potency in that assay.
